This is an account of results in ChEMBL document CHEMBL1129704, “Synthesis, biological activity and quantitative structure-activity relationships of N-substituted-3,4-dihydro-2H-1-benzopyran derivatives” (Bioorg Med Chem Lett, 1996).

Bounds are passed on as bounds.

Assay [1] addresses T1, D(2) dopamine receptor (Homo sapiens, UniProt P14416). Kind of assay: Binding affinity towards Dopamine receptor D2 by displacement of [3H]-Raclopride. On the technique in general: In a radioligand displacement assay an active substance lowers the binding of a labelled ligand.
For assay [2], the target named is T2, 5-hydroxytryptamine receptor 1B (Homo sapiens, UniProt P28222). Put plainly: Binding affinity towards 5-hydroxytryptamine 1B receptor by displacement of [3H]5-HT.
T2 sequence (P28222 whole entry): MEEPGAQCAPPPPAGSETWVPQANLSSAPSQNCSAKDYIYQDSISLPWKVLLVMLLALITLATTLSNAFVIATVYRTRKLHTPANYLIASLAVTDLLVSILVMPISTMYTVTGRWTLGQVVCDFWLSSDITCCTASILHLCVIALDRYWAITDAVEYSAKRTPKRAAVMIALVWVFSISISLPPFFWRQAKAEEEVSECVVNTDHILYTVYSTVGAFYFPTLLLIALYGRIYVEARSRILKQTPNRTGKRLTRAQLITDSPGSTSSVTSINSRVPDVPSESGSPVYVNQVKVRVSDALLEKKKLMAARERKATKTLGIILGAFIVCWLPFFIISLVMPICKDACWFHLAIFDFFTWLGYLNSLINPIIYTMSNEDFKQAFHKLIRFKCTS
The target of assay [3] is 5-hydroxytryptamine receptor 2A (Homo sapiens, UniProt P28223). Kind of assay: Binding affinity towards 5-hydroxytryptamine 2A receptor by displacement of [3H]ketanserin.
5-hydroxytryptamine receptor 2A, sequence (P28223 whole entry): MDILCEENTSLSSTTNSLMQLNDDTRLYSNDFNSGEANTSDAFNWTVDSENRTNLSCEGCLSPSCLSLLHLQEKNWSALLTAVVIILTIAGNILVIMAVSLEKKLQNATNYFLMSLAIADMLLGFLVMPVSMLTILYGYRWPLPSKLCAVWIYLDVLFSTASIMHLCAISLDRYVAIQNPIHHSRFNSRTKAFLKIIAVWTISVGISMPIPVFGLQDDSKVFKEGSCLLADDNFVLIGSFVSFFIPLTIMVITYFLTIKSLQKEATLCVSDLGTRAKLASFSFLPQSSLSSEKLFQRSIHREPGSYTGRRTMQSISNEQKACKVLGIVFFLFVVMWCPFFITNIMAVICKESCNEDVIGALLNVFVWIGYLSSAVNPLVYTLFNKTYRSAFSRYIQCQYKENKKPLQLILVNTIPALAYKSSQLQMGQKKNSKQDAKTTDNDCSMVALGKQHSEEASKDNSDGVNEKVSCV
The target in assay [4] is T3, 5-hydroxytryptamine receptor 1A (Homo sapiens, UniProt P08908).
T3 sequence (P08908 whole entry): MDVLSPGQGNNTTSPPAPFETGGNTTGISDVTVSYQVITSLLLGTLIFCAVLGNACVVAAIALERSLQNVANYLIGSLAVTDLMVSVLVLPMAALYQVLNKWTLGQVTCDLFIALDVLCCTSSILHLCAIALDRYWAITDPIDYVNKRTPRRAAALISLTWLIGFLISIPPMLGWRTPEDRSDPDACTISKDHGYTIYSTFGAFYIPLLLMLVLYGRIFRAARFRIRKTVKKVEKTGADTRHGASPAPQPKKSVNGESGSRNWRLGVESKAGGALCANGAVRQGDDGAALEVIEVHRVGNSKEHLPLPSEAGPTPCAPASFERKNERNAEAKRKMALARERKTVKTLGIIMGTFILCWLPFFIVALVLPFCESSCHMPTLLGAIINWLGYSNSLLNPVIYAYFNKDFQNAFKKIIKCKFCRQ
Put plainly: Binding affinity towards 5-hydroxytryptamine 1A receptor by displacement of [3H]8-OH-DPAT.

The target of assay [5] is T4, D(1A) dopamine receptor (Homo sapiens, UniProt P21728). Put plainly: Compound was evaluated for the binding affinity towards Dopamine receptor D1 by displacement of […].
T4 sequence (P21728 whole entry): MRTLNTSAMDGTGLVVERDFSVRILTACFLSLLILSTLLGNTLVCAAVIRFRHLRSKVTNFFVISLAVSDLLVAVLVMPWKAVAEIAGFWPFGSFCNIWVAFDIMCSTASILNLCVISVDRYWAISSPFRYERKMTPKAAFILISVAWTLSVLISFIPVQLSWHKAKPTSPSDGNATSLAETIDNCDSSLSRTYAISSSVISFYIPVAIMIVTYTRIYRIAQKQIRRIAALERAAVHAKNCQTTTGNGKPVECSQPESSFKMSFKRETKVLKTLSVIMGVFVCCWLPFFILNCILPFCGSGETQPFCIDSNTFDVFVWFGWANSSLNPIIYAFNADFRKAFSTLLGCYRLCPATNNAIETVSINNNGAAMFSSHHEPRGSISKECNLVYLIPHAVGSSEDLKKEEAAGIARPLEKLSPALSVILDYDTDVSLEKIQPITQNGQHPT
For assay [6], the target named is T5, 5-hydroxytryptamine receptor 2C (Homo sapiens, UniProt P28335).
T5 sequence (P28335 whole entry): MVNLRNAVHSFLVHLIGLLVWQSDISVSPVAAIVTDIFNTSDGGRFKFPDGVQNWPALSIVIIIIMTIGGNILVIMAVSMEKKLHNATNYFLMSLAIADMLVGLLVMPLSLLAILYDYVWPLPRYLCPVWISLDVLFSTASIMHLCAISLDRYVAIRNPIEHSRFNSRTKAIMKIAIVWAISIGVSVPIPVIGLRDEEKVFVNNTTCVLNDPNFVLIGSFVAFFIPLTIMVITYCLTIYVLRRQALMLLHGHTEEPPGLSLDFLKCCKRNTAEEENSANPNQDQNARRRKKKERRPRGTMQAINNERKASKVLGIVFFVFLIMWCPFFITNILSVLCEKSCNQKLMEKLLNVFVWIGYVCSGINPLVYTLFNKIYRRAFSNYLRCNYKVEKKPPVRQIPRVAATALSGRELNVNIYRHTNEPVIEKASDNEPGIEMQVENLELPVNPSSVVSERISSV
Put plainly: Compound was evaluated for the binding affinity towards 5-hydroxytryptamine 2C receptor by displacement of [3H]-Ketanserin.

Assay [7] concerns the target T1, D(2) dopamine receptor. Put plainly: Compound was evaluated for the binding affinity towards Dopamine receptor D2 by displacement of […].
The target of assay [8] is T2, 5-hydroxytryptamine receptor 1B. Put plainly: Compound was evaluated for the binding affinity towards 5-hydroxytryptamine 1B receptor by displacement of […].
For assay [9], the target named is T4, D(1A) dopamine receptor. Put plainly: Binding affinity towards Dopamine receptor D1 by displacement of [3H]SCH-23,390.
In assay [10] the target is T4, D(1A) dopamine receptor. Kind of assay: Compound was evaluated for the Dopamine receptor D1 by displacement of [3H]SCH-23390.

In general, IC50 refers to the concentration at which inhibition is half-maximal. A low value points to inhibition by little substance.

T1 sequence (P14416 whole entry): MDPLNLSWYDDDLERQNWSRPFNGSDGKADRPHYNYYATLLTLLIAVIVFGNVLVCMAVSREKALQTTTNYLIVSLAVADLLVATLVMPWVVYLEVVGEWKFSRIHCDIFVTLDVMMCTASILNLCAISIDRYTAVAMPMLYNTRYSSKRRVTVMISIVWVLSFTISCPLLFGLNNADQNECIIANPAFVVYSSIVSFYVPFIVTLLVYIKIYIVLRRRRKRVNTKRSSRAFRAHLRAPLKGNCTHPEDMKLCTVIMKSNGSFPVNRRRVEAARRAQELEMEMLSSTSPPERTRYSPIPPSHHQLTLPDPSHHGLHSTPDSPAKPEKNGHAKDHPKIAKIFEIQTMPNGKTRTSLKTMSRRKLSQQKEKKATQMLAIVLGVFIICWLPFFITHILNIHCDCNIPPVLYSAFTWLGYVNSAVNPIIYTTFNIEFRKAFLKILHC

`CCCN(CCC)CC1COc2cccc(OC)c2C1` (stereo unspecified): the 50% inhibitory concentration (IC50) at D(2) dopamine receptor [1] is 2.57 µM; in assay [2], 22.9 µM; in assay [3], 15.8 µM; in assay [4] it was 0.234 µM; at D(1A) dopamine receptor [5], 34.7 µM; in assay [6], 33.9 µM.

In the case of `COc1cccc2c1CC1(CCCN1CCCCN1C(=O)CC3(CCCC3)CC1=O)CO2` (stereo unspecified), the IC50 is 1.1 µM at D(2) dopamine receptor [7]; 3.8 µM in [2]; 6.61 µM in assay [8]; over 10 µM on D(1A) dopamine receptor [9]; 0.0107 µM in assay [4].

Turning to `CCCN1CCN(CCCCN2C(=O)CC3(CCCC3)CC2=O)CC12COc1cccc(OC)c1C2` (stereo unspecified), the IC50 in assay [2] was 1.58 µM; in [3], 11.2 µM; in assay [4], 15.8 µM.

Consider `O=C1CC2(CCCC2)CC(=O)N1CCCCNCC1COc2ccccc2C1` (stereo unspecified), for which the IC50 was 0.0676 µM at D(2) dopamine receptor [1]; 6.92 µM in [2]; 3.31 µM at D(1A) dopamine receptor [9]; 0.0562 µM in assay [3]; 0.00631 µM in [4].

Turning to `CCCN(CCCCN1C(=O)CC2(CCCC2)CC1=O)C1COc2cccc(OC)c2C1` (stereo unspecified), the half-inhibitory concentration (IC50) at D(2) dopamine receptor [1] is 0.01 µM; on D(1A) dopamine receptor [10] it was 39.8 µM; in [3], 1 µM.

Turning to `CCCN1CCN(Cc2ccccc2)CC12COc1cccc(OC)c1C2` (stereo unspecified), the half-inhibitory concentration (IC50) is 35.5 µM in [2], 24.5 µM in assay [3] and 15.8 µM in assay [4].

Consider `CCCN(CCC)CC1(N(CCC)CCC)COc2cccc(OC)c2C1` (stereo unspecified), for which the half-inhibitory concentration (IC50) in [2] is 138 µM; in assay [3], 214 µM; in assay [4], 4.17 µM.

With `COc1cccc2c1CC(CNCCCCN1C(=O)CC3(CCCC3)CC1=O)CO2` (stereo unspecified), the IC50 was 0.0295 µM at D(2) dopamine receptor [1]; 3.02 µM in assay [2]; 0.832 µM at D(1A) dopamine receptor [9]; 0.049 µM in [3]; 0.000129 µM in assay [4].

Take `CCCN(CCCCN1C(=O)CC2(CCCC2)CC1=O)CC1COc2cccc(OC)c2C1` (stereo unspecified): the IC50 at D(2) dopamine receptor [1] is 1.78 µM; in assay [2], 7.41 µM; at D(1A) dopamine receptor [9], 13.8 µM; in assay [3] it was 7.76 µM; in [4], 0.513 µM.

As for `CCCN1CCN(CCC)C2(COc3cccc(OC)c3C2)C1` (stereo unspecified), the values for the IC50 in [2], in assay [3] and in [4] were over 100 µM, 10 µM and 3.02 µM, respectively.
